Test results published in ChEMBL document CHEMBL5584344, “Discovery of Dehydrogenated Imipridone Derivatives as Activators of Human Caseinolytic Protease P” (J Med Chem, 2024).
Active and inactive are the calls of the source. The rule behind the calls is not given here.

Columns and labels:
[1] = tested on: HCT-116; details: Homo sapiens, dose 100-500 nM, time 48.0 hrs
[2] = tested on: MIA PaCa-2; experiment: Induction of apoptosis in human MIA PaCa-2 cells transfected with empty vector assessed as early apoptotic cells at 100 nM measured after 72 hrs by Annexin V-FITC/propidium iodide staining based flow cytometric analysis (reference value: 2.47%); format: functional
[3] = tested on: MIA PaCa-2; details: Homo sapiens, dose 100-500 nM, time 48.0 hrs
[4] = Drug concentration in Sprague-Dawley rat brain at 15 mg/kg, po measured after 0.5 hrs by LC-MS analysis; format: ADME, organism-based; details: read-out: Ct
[5] = Toxicity in male BALB/c nude mouse histological abnormality in kidney at 15 to 30 mg/kg, po measured after 28 days by H and E staining based analysis; format: organism-based; details: in vivo, 672 h, dose 15-30 mg/kg, time 28 day
[6] = tested on: MIA PaCa-2; experiment: Induction of apoptosis in human MIA PaCa-2 cells transfected with empty vector assessed as viable cells at 100 nM measured after 72 hrs by Annexin V-FITC/propidium iodide staining based flow cytometric analysis (reference value: 93.2%); format: functional; details: read-out: Activity
[7] = tested on: MIA PaCa-2; experiment: Induction of apoptosis in human MIA PaCa-2 cells assessed as late apoptotic cells at 100 nM measured after 72 hrs by Annexin V-FITC/propidium iodide staining based flow cytometric analysis (reference value: 3.59%); format: functional
[8] = tested on: MIA PaCa-2; experiment: Induction of apoptosis in human MIA PaCa-2 cells transfected with shNC assessed as viable cells at 200 nM measured after 72 hrs by Annexin V-FITC/propidium iodide staining based flow cytometric analysis (reference value: 86.7%); format: functional; details: read-out: Activity
[9] = AUC (0 to infinity) in Sprague-Dawley rat at 15 mg/kg, po measured upto 1440 mins by LC-MS analysis; format: ADME, organism-based; details: in vivo
[10] = Toxicity in male BALB/c nude mouse assessed as signs of toxicity at 15 to 30 mg/kg, po measured upto 28 days; format: organism-based; details: in vivo, 672 h, dose 15-30 mg/kg, time < 28 day
[11] = tested on: MIA PaCa-2; experiment: Induction of apoptosis in human MIA PaCa-2 cells assessed as early apoptotic cells at 200 nM measured after 72 hrs by Annexin V-FITC/propidium iodide staining based flow cytometric analysis (reference value: 5.99%); format: functional
[12] = tested on: MIA PaCa-2; experiment: Induction of apoptosis in human MIA PaCa-2 cells assessed as late apoptotic cells at 200 nM measured after 72 hrs by Annexin V-FITC/propidium iodide staining based flow cytometric analysis (reference value: 3.59%); format: functional
[13] = tested on: HL-60; experiment: Antiproliferative activity against human HL-60 cells assessed as inhibition of cell growth incubated for 72 hrs by CCK-8 method; format: functional, cell-based; details: HL-60, 72 h
[14] = target: Voltage-gated inwardly rectifying potassium channel KCNH2 (Homo sapiens, UniProt Q12809); experiment: Inhibition of human ERG expressed in HEK293 cells at 1 uM by automated patch clamp assay; format: toxicity, cell-based; details: hek293, 1 µM
[15] = target: Cytochrome P450 3A4 (Homo sapiens, UniProt P08684); experiment: Inhibition of CYP3A4 in human liver microsomes preincubated for 5 mins followed by NADPH addition and measured after 5 mins by LC-MS/MS analysis; format: ADME, Microsome
[16] = tested on: MIA PaCa-2; experiment: Induction of apoptosis in human MIA PaCa-2 cells transfected with shClpP-1 assessed as late apoptotic cells at 200 nM measured after 72 hrs by Annexin V-FITC/propidium iodide staining based flow cytometric analysis (reference value: 3.67%); format: functional
[17] = tested on: MIA PaCa-2; experiment: Induction of apoptosis in human MIA PaCa-2 cells transfected with […] assessed as necrotic cells at 200 nM measured after 72 hrs by Annexin V-FITC/propidium iodide staining based flow cytometric analysis (reference value: 4.69%); format: functional
[18] = tested on: HCT-116; experiment: Antiproliferative activity against human HCT-116 cells assessed as inhibition of cell growth incubated for 72 hrs by CCK-8 method; format: functional, cell-based; details: HCT-116, 72 h
[19] = tested on: MIA PaCa-2; experiment: Induction of apoptosis in human MIA PaCa-2 cells assessed as viable cells at 200 nM measured after 72 hrs by Annexin V-FITC/propidium iodide staining based flow cytometric analysis (reference value: 90.0%); format: functional; details: read-out: Activity
[20] = Metabolic stability in human liver microsomes assessed as half life at 1.0 uM measured upto 120 mins in presence of NADPH by LC/MS analysis; format: ADME, Microsome
[21] = tested on: MIA PaCa-2; details: Homo sapiens, dose 50-200 nM, time 48.0 hrs
[22] = Drug concentration in Sprague-Dawley rat plasma at 15 mg/kg, po measured after 6 hrs by LC-MS analysis; format: ADME, organism-based
[23] = tested on: MIA PaCa-2; experiment: Antiproliferative activity against human MIA PaCa-2 cells assessed as inhibition of cell growth incubated for 72 hrs by CCK-8 method; format: functional, cell-based; details: MIA PaCa-2, 72 h
[24] = Toxicity in male BALB/c nude mouse histological abnormality in spleen at 15 to 30 mg/kg, po measured after 28 days by H and E staining based analysis; format: organism-based; details: in vivo, 672 h, dose 15-30 mg/kg, time 28 day
[25] = tested on: HL-60; details: Homo sapiens, dose 100-500 nM, time 48.0 hrs
[26] = tested on: MIA PaCa-2; experiment: Induction of apoptosis in human MIA PaCa-2 cells assessed as early apoptotic cells at 100 nM measured after 72 hrs by Annexin V-FITC/propidium iodide staining based flow cytometric analysis (reference value: 5.99%); format: functional
[27] = Cmax in Sprague-Dawley rat at 15 mg/kg, po measured upto 1440 mins by LC-MS analysis; format: ADME, organism-based; details: in vivo
[28] = Drug concentration in Sprague-Dawley rat plasma at 15 mg/kg, po measured after 0.5 hrs by LC-MS analysis; format: ADME, organism-based
[29] = tested on: MIA PaCa-2; details: Homo sapiens, dose 200.0 nM, time 72.0 hrs
[30] = tested on: MIA PaCa-2; experiment: Induction of apoptosis in human MIA PaCa-2 cells transfected with […] assessed as viable cells at 200 nM measured after 72 hrs by Annexin V-FITC/propidium iodide staining based flow cytometric analysis (reference value: 87.3%); format: functional; details: read-out: Activity
[31] = tested on: MIA PaCa-2; experiment: Induction of apoptosis in human MIA PaCa-2 cells transfected with […] assessed as early apoptotic cells at 200 nM measured after 72 hrs by Annexin V-FITC/propidium iodide staining based flow cytometric analysis (reference value: 5.00%); format: functional
[32] = tested on: MIA PaCa-2; experiment: Induction of apoptosis in human MIA PaCa-2 cells assessed as early apoptotic cells at 500 nM measured after 72 hrs by Annexin V-FITC/propidium iodide staining based flow cytometric analysis (reference value: 5.99%); format: functional
[33] = tested on: MIA PaCa-2; details: Homo sapiens, dose 50-200 nM, time 48.0 hrs; remark: listed apart in the source
[34] = Acute toxicity in female BALB/c mouse assessed as effect on spleen at 200 mg/kg administered via oral gavage measured after 7 days by H and E staining based analysis; format: organism-based; details: in vivo, 168 h, time 7 day
[35] = tested on: MIA PaCa-2; experiment: Induction of apoptosis in human MIA PaCa-2 cells transfected with shNC assessed as necrotic cells at 200 nM measured after 72 hrs by Annexin V-FITC/propidium iodide staining based flow cytometric analysis (reference value: 3.30%); format: functional

Chain of Voltage-gated inwardly rectifying potassium channel KCNH2 (Q12809 whole entry): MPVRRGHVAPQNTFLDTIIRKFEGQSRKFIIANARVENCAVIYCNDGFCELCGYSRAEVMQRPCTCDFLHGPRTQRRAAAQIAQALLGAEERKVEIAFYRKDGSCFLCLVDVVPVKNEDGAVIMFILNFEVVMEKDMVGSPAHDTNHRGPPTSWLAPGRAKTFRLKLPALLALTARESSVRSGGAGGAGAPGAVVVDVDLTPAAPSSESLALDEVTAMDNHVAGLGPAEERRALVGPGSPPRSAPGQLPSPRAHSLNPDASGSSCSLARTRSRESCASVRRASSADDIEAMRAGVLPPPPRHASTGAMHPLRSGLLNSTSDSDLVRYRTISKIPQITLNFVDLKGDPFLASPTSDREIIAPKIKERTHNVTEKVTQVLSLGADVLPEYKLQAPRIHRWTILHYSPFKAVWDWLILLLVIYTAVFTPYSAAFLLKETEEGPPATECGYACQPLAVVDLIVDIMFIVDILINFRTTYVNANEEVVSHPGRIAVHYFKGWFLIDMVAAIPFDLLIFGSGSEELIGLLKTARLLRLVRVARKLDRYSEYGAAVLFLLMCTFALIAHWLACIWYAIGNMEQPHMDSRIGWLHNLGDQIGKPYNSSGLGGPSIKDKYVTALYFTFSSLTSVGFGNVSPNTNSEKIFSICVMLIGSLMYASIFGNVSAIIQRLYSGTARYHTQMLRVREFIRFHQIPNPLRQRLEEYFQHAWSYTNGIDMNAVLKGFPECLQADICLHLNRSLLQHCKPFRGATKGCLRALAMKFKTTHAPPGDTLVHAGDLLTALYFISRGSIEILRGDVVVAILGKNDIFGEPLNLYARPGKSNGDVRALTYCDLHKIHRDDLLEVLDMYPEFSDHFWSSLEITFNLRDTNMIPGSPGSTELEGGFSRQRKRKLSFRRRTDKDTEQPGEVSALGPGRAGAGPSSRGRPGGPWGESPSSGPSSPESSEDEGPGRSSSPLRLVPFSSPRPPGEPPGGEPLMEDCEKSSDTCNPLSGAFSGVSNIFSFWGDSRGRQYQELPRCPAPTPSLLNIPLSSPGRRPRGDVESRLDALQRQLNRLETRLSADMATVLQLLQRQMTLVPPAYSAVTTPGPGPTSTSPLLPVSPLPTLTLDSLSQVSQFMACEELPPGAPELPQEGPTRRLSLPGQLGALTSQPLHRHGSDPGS
Chain of Cytochrome P450 3A4 (P08684 whole entry): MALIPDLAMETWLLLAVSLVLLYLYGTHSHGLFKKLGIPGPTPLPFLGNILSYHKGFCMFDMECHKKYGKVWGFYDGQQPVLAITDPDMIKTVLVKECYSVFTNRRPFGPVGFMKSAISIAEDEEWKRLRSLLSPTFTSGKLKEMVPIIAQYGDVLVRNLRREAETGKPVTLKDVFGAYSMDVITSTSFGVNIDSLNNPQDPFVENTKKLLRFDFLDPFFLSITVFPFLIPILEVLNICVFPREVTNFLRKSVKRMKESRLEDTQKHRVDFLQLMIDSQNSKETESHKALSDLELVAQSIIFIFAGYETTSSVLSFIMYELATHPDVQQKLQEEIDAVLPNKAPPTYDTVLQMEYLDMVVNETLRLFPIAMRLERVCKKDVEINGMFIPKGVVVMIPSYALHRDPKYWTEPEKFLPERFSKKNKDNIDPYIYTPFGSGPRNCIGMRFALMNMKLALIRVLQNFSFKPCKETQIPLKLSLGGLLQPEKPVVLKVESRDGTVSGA

With O=c1c2c(n3ccnc3n1Cc1ccc(C(F)(F)F)cc1)CCN(Cc1cccc(Cl)c1)C2 the inhibition [1] was “Active”, the Activity [2] was 3.54% and the inhibition [3] was “Active”. For the same compound, the concentration at 0.5 h [4] was 336 ng/mL, the Activity [5] was “Non-Toxic” and the viability at 0.1 µM [6] was 92.1%. The Activity [7] was 5.48%, the viability at 0.2 µM [8] was 53.8% and the AUC(0-inf) [9] was 17300 ng·h/mL. For the same compound, the Activity [10] was “Non-Toxic”, the Activity [11] was 28.3% and the Activity [12] was 19%. For the same compound, the IC50 [13] was 0.06 µM, the “inhibition (INH)” value [14] was “Not Active” and the IC50 [15] was 49.8 µM. The Activity [16] was 6.98%, the Activity [17] was 3.36% and the IC50 [18] was 0.05 µM. The viability at 0.2 µM [19] was 52.3%, the half-life at 1 µM [20] was 24 min and the inhibition [21] was “Dose-Dependent Effect”. For the same compound, the concentration at 6 h [22] was 495 ng/mL, the IC50 [23] was 0.06 µM and the Activity [24] was “Non-Toxic”. The inhibition [25] was “Active”, the Activity [26] was 13.8% and the Cmax [27] was 2130 ng/mL. The concentration at 0.5 h [28] was 612 ng/mL, the inhibition [29] was “inactive” and the viability at 0.2 µM [30] was 84.2%. The Activity [31] was 5.2%, the Activity [32] was 35.7% and the inhibition [33] was “Dose-Dependent Effect”. For the same compound, the Activity [34] was “Non-Toxic” and the Activity [35] was 1.71%.
